“And” between values parts separate entries of the source, which are not always exact repeats. Equal values may be shown once.
Assays:
Colo205 = test: Inhibition of cell proliferation (CellTiter-Glo or InCell analyzer), Colo205; type: cell-based; conditions: Homo sapiens, COLO 205, 72 h / 3 days, values given as IC50 category
Method: (§1) Cell proliferation was measured by either CellTiter-Glo (measures cellular ATP level as a surrogate for total cell number) or by InCell analyzer (counts number of nuclei as a measure of cell number).
(§2) For CellTiter-Glo assay, exponentially growing cell lines of different tumor origins, cultured in appropriate media containing 10% fetal bovine serum at 37° C. in a 5% CO2 incubator, were plated at low density (less than 2000cells/well) in 96-well plates. Twenty four hours post-plating, cells were treated with different concentrations of test compounds ranging from 30 uM to 1.5 nM. Several wells were left untreated as a control. Seventy two hours post-treatment, cell numbers were determined using 50-100 ul per well of CellTiter-Glo (Promega #G7573). Plates were incubated at 37° C. for 30 minutes and the chemiluminescent signal was read on the Victor V or Envison 2100 reader.
(§3) For InCell Analyser assay, various cell lines of different tumor origins were grown to 70-80% confluency in appropriate culture media containing 10% fetal bovine serum at 37° C. in a 5% CO2 incubator. On day −1, cells were seeded at 2 densities in 384-well plates and incubated at 37° C. overnight. Stock compound plates were prepared in advance which contained dimethyl sulfoxide (DMSO) alone and a 9-point half-log decreasing dose range of the compound in DMSO. The compound plates were stored at −80° C. and each plate was only thawed once and used. On day 0, the main assay plates received compound or DMSO via a sonic delivery system (ECHO). The highest final concentration of compound of the dose range in the culture plates was 10 uM. These plates were cultured at 37° C. for 3 days. […] On day 3, the compound treated plates were stained and fixed to measure proliferation, apoptosis, and mitotic index using an InCelL1000 analyser. A nuclear stain was used to identify cells in the wells. By counting the number of nuclei, the proliferation index of compound treated groups were calculated as a percentage relative to the DMSO control, which was set to 100%. The IC50 values were calculated using model 205 in ExcelFit.
(§4) IC50 (nM) values for compounds of select examples were categorized by relative inhibition of cell proliferation.

NCI-H929 = test: Inhibition of cell proliferation (CellTiter-Glo or InCell analyzer), NCI-H929; type: cell-based; conditions: Homo sapiens, 72 h / 3 days, values given as IC50 category
Method: as §1, §2, §3, §4

[1] = molecular target: T1, NIH-3T3 cells overexpressing human IGF-1R (Homo sapiens, UniProt P08069); test: IGF-1R cellular autophosphorylation (DELFIA); type: cell-based
T1 construct: expressed in transfected cells; host or cells: NIH-3T3 (mouse fibroblasts)
T1 sequence (P08069 31-1367): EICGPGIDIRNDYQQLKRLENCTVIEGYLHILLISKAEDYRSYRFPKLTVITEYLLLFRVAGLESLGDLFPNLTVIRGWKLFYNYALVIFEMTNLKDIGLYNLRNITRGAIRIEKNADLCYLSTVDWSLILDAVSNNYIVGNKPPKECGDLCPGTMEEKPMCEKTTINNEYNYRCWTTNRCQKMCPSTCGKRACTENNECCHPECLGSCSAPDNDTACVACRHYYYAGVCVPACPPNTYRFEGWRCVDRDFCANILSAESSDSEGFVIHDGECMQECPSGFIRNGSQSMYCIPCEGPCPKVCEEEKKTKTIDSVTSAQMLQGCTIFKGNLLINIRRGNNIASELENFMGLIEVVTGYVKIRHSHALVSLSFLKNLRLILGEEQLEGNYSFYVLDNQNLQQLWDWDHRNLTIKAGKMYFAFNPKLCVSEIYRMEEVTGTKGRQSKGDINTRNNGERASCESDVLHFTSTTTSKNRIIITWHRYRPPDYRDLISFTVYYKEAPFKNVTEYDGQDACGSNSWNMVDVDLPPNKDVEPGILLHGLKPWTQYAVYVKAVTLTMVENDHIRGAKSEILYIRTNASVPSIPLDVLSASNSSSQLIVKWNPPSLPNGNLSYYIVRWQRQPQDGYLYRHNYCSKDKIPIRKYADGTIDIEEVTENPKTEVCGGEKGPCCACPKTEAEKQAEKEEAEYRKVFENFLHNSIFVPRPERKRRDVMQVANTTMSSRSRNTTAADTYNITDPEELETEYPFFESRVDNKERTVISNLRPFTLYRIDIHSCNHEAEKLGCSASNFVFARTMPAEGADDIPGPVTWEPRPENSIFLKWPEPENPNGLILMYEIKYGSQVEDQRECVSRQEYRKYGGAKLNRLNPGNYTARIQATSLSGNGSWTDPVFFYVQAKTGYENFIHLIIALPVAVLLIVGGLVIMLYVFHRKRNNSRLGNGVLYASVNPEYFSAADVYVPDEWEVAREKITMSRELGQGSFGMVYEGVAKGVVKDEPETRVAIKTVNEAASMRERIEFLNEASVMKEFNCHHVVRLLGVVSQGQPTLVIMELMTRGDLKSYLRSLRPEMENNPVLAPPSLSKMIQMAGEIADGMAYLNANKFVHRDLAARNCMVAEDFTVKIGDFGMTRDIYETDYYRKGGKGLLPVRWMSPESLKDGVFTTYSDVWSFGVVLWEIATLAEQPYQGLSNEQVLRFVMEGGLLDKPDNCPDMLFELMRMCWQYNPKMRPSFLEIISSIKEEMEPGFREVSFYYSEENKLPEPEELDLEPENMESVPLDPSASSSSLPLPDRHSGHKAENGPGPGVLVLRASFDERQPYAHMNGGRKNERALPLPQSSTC
In short: (§5)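 Receptor autophosphorylation measured by DELFIA, capturing IGF-1R or IRβ and detecting with europium anti-pTyr, reported as percent of IGF-1- or insulin-stimulated signal. Compounds (30 uM to 1.5 nM) added 2 h before ligand, then 15 min stimulation (IGF-1 30 ng/ml or insulin 3 ug/ml).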

ALK = ALK (Homo sapiens, UniProt Q9UM73); test: ALK enzyme assay (HTRF); type: biochemical; conditions: 0.25 nM ALK, 15.0 μM ATP, values given as pIC50 category
ALK, sequence (Q9UM73 19-1620): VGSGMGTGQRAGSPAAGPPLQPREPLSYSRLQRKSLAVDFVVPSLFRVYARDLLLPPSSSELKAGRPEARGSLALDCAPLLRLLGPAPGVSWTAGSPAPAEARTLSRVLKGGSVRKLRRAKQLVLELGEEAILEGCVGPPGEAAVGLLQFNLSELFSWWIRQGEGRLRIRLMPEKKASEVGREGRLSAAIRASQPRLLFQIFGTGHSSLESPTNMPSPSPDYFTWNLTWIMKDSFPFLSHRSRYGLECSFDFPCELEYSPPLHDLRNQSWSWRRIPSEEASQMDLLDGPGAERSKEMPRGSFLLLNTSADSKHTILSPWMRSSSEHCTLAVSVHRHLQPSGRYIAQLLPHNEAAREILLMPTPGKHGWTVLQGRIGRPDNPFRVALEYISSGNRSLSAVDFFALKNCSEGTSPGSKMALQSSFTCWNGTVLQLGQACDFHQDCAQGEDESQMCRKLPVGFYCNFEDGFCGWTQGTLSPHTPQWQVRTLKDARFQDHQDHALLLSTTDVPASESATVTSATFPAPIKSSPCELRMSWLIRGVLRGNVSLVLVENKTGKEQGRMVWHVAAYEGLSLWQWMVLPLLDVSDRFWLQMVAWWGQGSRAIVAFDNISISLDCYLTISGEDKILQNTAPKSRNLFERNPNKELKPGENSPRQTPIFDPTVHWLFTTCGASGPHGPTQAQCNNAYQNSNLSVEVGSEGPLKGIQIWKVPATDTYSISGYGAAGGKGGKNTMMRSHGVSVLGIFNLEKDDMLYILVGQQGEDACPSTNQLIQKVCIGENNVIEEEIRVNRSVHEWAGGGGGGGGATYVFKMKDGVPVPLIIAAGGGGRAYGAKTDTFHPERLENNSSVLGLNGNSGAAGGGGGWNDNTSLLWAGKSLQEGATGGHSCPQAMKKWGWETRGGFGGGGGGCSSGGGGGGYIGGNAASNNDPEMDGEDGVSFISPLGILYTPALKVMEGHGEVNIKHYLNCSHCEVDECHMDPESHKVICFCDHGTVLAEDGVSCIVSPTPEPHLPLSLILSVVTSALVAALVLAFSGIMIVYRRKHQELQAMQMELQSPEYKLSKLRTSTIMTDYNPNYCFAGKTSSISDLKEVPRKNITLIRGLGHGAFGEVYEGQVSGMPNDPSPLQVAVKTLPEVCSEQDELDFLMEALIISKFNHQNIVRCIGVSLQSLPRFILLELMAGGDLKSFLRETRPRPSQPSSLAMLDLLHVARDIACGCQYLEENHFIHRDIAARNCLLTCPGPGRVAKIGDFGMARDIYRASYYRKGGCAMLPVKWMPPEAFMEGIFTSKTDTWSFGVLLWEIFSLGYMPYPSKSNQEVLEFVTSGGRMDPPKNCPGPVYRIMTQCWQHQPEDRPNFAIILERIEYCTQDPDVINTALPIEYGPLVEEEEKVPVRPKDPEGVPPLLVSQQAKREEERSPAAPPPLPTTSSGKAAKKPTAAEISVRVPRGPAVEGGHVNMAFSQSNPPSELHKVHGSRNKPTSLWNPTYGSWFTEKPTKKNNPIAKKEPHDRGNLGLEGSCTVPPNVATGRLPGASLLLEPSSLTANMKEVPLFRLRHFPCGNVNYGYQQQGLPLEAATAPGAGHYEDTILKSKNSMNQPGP
In short: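 Isolated ALK phosphorylates a biotinylated tyrosine peptide, 120 min at 20° C; anti-phosphotyrosine Eu-cryptate/streptavidin-XL665 HTRF read after 60 min with EDTA-containing detection mix.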

[2] = molecular target: T2, NIH-3T3 cells overexpressing human IR (Homo sapiens, UniProt P06213); test: IR cellular autophosphorylation (DELFIA); type: cell-based; conditions: 2 h compound, insulin 3 ug/ml for 15 minutes, IC50 category
T2 construct: expressed in transfected cells; host or cells: NIH-3T3 (mouse fibroblasts)
T2 sequence (P06213 28-1382): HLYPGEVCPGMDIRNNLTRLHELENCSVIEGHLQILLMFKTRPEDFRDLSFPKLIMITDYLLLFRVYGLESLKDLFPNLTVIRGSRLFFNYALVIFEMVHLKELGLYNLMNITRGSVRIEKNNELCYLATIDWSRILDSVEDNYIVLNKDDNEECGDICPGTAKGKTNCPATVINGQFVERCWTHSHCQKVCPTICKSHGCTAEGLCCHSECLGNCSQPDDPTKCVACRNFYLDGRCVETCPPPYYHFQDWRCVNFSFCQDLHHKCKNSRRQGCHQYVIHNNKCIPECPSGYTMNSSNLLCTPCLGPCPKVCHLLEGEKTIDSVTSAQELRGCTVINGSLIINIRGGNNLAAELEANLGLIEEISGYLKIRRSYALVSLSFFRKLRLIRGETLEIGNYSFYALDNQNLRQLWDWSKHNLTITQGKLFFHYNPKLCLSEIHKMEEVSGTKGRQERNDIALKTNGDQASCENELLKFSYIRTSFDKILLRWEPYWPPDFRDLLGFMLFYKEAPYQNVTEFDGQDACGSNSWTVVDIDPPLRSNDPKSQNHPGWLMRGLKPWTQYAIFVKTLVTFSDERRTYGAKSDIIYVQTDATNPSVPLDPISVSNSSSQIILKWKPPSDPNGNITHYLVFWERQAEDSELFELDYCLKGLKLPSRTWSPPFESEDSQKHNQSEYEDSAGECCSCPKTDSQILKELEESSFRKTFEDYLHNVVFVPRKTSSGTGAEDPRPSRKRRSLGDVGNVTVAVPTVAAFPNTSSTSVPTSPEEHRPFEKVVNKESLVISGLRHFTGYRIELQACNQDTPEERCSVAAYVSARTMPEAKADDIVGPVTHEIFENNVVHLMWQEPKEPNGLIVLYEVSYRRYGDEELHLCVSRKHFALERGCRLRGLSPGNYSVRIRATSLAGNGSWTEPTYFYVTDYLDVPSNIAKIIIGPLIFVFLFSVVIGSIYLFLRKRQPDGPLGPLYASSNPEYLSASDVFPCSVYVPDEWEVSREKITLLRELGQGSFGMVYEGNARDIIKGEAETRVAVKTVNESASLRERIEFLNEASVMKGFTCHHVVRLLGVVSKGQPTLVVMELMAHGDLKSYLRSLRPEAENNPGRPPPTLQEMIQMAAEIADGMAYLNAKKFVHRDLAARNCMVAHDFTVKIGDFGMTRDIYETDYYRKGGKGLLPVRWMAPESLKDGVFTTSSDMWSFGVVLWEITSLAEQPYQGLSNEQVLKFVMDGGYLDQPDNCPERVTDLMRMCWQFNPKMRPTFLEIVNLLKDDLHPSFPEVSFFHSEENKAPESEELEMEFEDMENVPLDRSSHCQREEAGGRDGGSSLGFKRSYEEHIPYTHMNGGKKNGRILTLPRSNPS
In short: as §5

human IGF1R (hIGF1R) = molecular target: T3, human IGF1R (hIGF1R) (Homo sapiens, UniProt P08069); test: TR-FRET kinase assay of purified hIGF1R; type: biochemical; conditions: activated hIGF1R 0.5 nM, 10 μM ATP, values given as pIC50 category, read-out: IGF-1R pIC50 (converted)
T3 construct: containing amino acid residues 957-1367 of human IGF1R; made in house; host or cells: Sf9 cells (baculovirus)
T3 sequence (P08069 957-1367): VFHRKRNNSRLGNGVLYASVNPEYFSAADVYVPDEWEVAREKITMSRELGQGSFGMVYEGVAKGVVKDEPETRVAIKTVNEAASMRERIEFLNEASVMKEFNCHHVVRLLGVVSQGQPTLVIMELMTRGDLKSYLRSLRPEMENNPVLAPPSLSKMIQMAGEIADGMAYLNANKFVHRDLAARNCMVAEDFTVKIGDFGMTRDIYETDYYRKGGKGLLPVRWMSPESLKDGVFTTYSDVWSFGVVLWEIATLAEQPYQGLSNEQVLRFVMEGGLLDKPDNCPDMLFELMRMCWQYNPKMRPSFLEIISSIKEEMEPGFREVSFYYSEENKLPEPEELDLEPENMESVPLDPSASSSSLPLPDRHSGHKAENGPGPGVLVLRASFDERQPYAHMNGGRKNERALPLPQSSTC

human IR (hIR) = molecular target: T4, human IR (hIR) (Homo sapiens, UniProt P06213); test: TR-FRET kinase assay of purified hIR; type: biochemical; conditions: activated hIR 0.5 nM, 10 μM ATP, values given as pIC50 category
T4 construct: containing amino acid residues 979-1382 of human IR; made in house; host or cells: Sf9 cells (baculovirus), same process as hIGF1R
T4 sequence (P06213 979-1382): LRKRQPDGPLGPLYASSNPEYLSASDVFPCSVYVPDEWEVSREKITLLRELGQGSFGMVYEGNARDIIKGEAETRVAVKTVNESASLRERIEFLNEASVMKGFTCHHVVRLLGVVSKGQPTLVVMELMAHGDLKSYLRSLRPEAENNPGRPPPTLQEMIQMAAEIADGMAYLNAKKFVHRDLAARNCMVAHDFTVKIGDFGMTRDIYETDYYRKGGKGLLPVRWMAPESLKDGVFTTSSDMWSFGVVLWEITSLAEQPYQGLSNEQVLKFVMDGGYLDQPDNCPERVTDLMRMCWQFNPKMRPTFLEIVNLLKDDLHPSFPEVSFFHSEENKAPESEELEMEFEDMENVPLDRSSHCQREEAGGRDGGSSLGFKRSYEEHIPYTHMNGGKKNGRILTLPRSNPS

Row | IC50 (Colo205) [nM] | IC50 (NCI-H929) [nM] | IC50 [1] [nM] | IC50 (ALK) | IC50 [2] [nM] | IC50 (human IGF1R (hIGF1R)) [nM] | IC50 (human IR (hIR)) [nM] | Compound
1 | > 1000 | 250 to 1000 | > 500 | 1.26 to 3.98 nM | > 500 |  |  | COc1c(Nc2nc(Nc3cccc(F)c3C(N)=O)c3cc[nH]c3n2)ccc(N2CCN(C(C)C)CC2)c1C [Example 50, 2-fluoro-6-[(2-{[3-methyl-4-[4-(1-methylethyl)-1-piperazinyl]-2-(methyloxy)phenyl]amino}-1 H-pyrrolo[2,3-d]pyrimidin-4-yl)amino]benzamide]
2 | 250 to 1000 | < 250 | < 100 | 0.251 to 1 nM | 100 to 500 |  |  | COc1cc2c(cc1Nc1nc(Nc3cc(Cl)cc(F)c3C(N)=O)c3cc[nH]c3n1)N(C(=O)CN1CCCC1)CCC2 [Example 173, 4-chloro-2-fluoro-6-[(2-{[6-(methyloxy)-1-(1-pyrrolidinylacetyl)-1,2,3,4-tetrahydro-7-quinolinyl]amino}-1H-pyrrolo[2,3-d]pyrimidin-4-yl)amino]benzamide]
3 |  | > 1000 | > 500 | 5.01 to 200 nM | > 500 | 5.01 to 200 |  | COc1cc2ccn(CC(=O)N(C)C)c2cc1Nc1nc(Nc2cccc(F)c2C(N)=O)c2cc[nH]c2n1 [Example 196, 2-[(2-{[1-[2-(dimethylamino)-2-oxoethyl]-5-(methyloxy)-1H-indol-6-yl]amino}-1H-pyrrolo[2,3-d]pyrimidin-4-yl)amino]-6-fluorobenzamide]
4 | < 250 | < 250 |  | 0.251 to 1 nM |  | 0.251 to 1 | 0.251 to 1 | COc1cc2c(cc1Nc1nc(Nc3cccc(F)c3C(N)=O)c3cc[nH]c3n1)N(C(=O)CN1CCCC1)CCC2(C)C [Example 223, 2-[(2-{[4,4-dimethyl-6-(methyloxy)-1-(1-pyrrolidinylacetyl)-1,2,3,4-tetrahydro-7-quinolinyl]amino}-1H-pyrrolo[2,3-d]pyrimidin-4-yl)amino]-6-fluorobenzamide]
5 | 250 to 1000 | < 250 |  | 1.26 to 3.98 nM and 0.251 to 1 nM |  | 0.251 to 1 | 0.251 to 1 | CNC(=O)c1c(F)cccc1Nc1nc(Nc2cc3c(cc2OC)C(C)(C)CCN3C(=O)CN2CCCC2)nc2[nH]ccc12 [Example 224, 2-[(2-{[4,4-dimethyl-6-(methyloxy)-1-(1-pyrrolidinylacetyl)-1,2,3,4-tetrahydro-7-quinolinyl]amino}-1H-pyrrolo[2,3-d]pyrimidin-4-yl)amino]-6-fluoro-N-methylbenzamide]
6 | < 250 | < 250 |  | 0.251 to 1 nM |  | 0.251 to 1 | 0.251 to 1 | COc1cc2c(cc1Nc1nc(Nc3cccc(F)c3C(N)=O)c3cc[nH]c3n1)N(C(=O)CN(C)C)CCC2(C)C [Example 225, 2-[(2-{[1-(N,N-dimethylglycyl)-4,4-dimethyl-6-(methyloxy)-1,2,3,4-tetrahydro-7-quinolinyl]amino}-1H-pyrrolo[2,3-d]pyrimidin-4-yl)amino]-6-fluorobenzamide]
7 | 250 to 1000 | 250 to 1000 |  | 1.26 to 3.98 nM |  | 1.26 to 3.98 | 0.251 to 1 | COc1cc2c(cc1Nc1nc(Nc3cccc(F)c3C(N)=O)c3cc[nH]c3n1)NC(=O)CC2(C)C [Example 227, 2-[(2-{[4,4-dimethyl-6-(methyloxy)-2-oxo-1,2,3,4-tetrahydro-7-quinolinyl]amino}-1H-pyrrolo[2,3-d]pyrimidin-4-yl)amino]-6-fluorobenzamide]
8 | > 1000 | 250 to 1000 |  | 1.26 to 3.98 nM |  | 1.26 to 3.98 | 1.26 to 3.98 | CNC(=O)c1c(F)cccc1Nc1nc(Nc2cc3c(cc2OC)C(C)(C)CC(=O)N3)nc2[nH]ccc12 [Example 228, 2-[(2-{[4,4-dimethyl-6-(methyloxy)-2-oxo-1,2,3,4-tetrahydro-7-quinolinyl]amino}-1H-pyrrolo[2,3-d]pyrimidin-4-yl)amino]-6-fluoro-N-methylbenzamide]

Source: patent US7981903B2, “2-[2-{phenylamino}-1H-pyrrolo[2,3-D]pyrimidin-4-yl)amino] benzamide derivatives as IGF-1R inhibitors for the treatment of cancer” (GlaxoSmithKline LLC, priority 2007, dated 2011)
